# According to ChEMBL document CHEMBL5465560, “Selectivity Literature for EUbOPEN Chemogenomic Library” (2024):
# How the values were obtained:
# [1] = target: Mitogen-activated protein kinase kinase kinase 10 (Homo sapiens) (UniProt Q02779); settings: at 10 µM
# [2] = target: T1, Calcium/calmodulin-dependent protein kinase type IV (Homo sapiens) (UniProt Q16566); experiment: Selectivity interaction (KinomeScan (DiscoverX)) EUB0001049a CAMK4; settings: at 1 µM
# T1 sequence (whole entry): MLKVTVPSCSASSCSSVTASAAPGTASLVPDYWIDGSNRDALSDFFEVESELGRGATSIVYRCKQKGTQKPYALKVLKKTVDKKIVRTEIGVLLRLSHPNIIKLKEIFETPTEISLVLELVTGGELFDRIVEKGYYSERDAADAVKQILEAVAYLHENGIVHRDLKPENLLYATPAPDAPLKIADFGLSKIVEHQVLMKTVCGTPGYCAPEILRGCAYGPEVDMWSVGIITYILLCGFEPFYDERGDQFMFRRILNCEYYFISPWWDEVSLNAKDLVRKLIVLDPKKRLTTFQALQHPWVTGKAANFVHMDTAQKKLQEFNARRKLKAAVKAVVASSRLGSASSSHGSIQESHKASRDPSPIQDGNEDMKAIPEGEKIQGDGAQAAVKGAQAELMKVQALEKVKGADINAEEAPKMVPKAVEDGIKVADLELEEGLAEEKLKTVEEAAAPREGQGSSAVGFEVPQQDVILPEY
# [3] = target: LIM domain kinase 1 (Homo sapiens) (UniProt P53667); experiment: Selectivity interaction (Ambit KINOMEscan and KiNATiv profiling in Jurkat cells) EUB0000090b LIMK1; type: cell-based; settings: at 1 µM
# Sequence of LIM domain kinase 1 (Homo sapiens) (P53667 whole entry, looked up, the tested form may be a part): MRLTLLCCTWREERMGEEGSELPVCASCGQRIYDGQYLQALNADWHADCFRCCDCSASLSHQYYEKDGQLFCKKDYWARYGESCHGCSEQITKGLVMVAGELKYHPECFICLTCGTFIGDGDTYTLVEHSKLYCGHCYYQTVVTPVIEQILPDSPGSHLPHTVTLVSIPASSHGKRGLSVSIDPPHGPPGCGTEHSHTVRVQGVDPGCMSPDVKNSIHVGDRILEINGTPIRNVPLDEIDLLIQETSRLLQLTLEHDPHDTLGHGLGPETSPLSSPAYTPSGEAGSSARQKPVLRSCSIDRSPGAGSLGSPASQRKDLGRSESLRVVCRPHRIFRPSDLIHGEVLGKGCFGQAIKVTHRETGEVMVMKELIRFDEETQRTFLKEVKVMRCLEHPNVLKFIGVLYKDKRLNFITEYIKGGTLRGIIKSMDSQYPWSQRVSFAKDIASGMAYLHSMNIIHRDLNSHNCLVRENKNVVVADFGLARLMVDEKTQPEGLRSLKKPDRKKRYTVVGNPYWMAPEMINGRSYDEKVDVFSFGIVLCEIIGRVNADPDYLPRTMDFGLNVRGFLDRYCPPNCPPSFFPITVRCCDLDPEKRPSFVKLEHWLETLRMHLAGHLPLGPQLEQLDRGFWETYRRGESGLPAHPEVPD
# [4] = target: Mitogen-activated protein kinase 10 (Homo sapiens, UniProt P53779); experiment: Selectivity interaction (KinomeScan (DiscoverX)) EUB0000229b MAPK10; settings: at 10 µM
# Sequence of Mitogen-activated protein kinase 10 (P53779 whole entry): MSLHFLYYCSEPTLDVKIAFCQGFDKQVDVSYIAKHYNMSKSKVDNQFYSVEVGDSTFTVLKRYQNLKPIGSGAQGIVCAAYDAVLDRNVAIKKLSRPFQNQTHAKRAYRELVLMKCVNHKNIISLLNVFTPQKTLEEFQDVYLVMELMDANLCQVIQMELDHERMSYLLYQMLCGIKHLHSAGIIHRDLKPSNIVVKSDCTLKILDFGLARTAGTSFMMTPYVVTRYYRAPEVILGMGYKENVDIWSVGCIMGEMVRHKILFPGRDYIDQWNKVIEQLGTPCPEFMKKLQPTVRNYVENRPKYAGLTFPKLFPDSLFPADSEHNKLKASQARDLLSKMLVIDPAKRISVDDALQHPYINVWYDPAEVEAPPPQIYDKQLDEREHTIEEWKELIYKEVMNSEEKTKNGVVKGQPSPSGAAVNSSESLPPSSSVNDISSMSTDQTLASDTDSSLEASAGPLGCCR
# [5] = target: T2, Ephrin type-B receptor 6 (Homo sapiens) (UniProt O15197); experiment: Selectivity interaction (KinomeScan (DiscoverX)) EUB0000618a EPHB6; settings: at 10 µM
# T2 sequence (whole entry): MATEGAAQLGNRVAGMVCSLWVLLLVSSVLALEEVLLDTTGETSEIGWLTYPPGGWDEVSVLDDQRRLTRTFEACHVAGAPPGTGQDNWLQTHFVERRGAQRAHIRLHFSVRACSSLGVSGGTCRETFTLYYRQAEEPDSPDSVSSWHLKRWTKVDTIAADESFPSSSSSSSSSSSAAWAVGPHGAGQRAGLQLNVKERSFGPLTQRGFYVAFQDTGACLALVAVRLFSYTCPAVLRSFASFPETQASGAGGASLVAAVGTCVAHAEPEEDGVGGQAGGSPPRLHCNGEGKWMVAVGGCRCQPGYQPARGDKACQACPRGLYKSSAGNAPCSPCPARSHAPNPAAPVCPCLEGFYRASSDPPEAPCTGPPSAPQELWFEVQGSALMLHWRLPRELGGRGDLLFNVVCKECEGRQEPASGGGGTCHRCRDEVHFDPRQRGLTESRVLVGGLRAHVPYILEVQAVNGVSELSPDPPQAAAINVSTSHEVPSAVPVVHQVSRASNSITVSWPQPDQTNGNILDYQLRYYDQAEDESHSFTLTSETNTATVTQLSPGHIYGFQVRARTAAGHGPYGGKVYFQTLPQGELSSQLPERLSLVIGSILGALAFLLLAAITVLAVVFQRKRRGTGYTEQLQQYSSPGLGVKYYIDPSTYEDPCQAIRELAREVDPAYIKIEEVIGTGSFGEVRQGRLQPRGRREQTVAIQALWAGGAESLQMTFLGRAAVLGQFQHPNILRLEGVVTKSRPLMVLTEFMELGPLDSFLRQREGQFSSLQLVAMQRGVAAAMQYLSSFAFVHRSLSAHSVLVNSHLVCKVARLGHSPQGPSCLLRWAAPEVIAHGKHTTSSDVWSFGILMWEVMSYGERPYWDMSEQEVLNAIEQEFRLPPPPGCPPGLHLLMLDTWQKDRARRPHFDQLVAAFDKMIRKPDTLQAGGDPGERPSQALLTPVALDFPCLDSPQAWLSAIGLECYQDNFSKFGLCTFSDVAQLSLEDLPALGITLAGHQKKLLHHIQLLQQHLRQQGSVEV
# [6] = target: Cyclin-dependent kinase 2 (Homo sapiens, UniProt P24941); experiment: Selectivity interaction (Kinase panel (DSF assay)) EUB0001559a CDK2
# [7] = target: Ribosomal protein S6 kinase alpha-6 (Homo sapiens, UniProt Q9UK32); experiment: Selectivity interaction (KinomeScan (DiscoverX)) EUB0000607a RPS6KA6; settings: at 10 µM
# Sequence of Ribosomal protein S6 kinase alpha-6 (Q9UK32 whole entry): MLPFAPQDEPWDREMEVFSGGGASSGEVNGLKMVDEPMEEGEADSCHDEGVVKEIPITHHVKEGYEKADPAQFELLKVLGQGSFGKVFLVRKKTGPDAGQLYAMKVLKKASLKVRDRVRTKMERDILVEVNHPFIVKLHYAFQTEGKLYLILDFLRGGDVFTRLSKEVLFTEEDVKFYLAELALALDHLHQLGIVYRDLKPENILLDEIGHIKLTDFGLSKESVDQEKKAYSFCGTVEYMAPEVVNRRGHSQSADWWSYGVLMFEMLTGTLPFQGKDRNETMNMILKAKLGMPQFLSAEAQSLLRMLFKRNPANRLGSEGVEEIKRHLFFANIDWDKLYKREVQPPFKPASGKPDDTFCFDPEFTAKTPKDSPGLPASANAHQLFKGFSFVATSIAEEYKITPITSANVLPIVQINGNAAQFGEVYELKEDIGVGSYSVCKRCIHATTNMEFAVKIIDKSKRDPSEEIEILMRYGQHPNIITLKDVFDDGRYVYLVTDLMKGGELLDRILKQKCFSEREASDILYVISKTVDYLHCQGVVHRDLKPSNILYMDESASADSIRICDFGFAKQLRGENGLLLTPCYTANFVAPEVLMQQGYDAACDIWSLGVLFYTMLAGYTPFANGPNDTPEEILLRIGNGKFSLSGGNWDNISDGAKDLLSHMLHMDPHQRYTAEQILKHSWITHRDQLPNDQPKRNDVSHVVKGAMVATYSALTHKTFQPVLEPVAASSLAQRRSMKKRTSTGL
# [8] = target: T3, Serine/threonine-protein kinase LATS1 (Homo sapiens) (UniProt O95835); experiment: Selectivity interaction (Kinase panel (KiNativ target engagement assay in Jurkat cells)) EUB0001635a LATS1; type: cell-based; settings: at 1 µM
# T3 sequence (whole entry): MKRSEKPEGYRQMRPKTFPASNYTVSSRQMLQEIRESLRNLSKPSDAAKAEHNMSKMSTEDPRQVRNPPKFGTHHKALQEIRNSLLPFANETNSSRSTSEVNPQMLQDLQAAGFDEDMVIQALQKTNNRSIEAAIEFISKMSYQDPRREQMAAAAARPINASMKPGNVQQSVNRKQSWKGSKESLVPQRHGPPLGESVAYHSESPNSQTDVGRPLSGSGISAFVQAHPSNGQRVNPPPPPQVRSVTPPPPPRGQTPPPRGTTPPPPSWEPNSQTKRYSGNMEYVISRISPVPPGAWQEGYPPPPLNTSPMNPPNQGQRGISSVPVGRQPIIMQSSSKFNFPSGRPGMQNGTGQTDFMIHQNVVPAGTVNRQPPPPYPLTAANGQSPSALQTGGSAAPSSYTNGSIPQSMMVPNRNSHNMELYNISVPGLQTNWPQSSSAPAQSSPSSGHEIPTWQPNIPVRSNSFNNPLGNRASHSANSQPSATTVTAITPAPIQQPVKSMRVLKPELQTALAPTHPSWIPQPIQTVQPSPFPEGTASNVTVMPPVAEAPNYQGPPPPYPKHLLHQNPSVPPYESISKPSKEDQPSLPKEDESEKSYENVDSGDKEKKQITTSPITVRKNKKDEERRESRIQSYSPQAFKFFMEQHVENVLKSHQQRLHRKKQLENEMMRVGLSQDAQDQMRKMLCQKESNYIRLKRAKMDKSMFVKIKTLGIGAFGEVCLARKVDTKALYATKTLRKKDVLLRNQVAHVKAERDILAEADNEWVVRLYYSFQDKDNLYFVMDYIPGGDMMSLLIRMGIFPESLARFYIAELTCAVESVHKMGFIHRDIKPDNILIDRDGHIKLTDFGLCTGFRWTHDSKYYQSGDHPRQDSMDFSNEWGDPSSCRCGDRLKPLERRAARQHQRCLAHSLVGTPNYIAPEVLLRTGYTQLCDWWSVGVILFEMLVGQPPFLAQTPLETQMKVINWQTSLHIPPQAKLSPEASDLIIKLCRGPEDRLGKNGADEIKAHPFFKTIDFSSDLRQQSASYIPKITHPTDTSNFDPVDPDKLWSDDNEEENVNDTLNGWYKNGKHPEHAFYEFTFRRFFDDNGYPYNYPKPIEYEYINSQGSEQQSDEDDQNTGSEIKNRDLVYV
# Sequence of Mitogen-activated protein kinase kinase kinase 10 (Homo sapiens) (Q02779 whole entry, looked up): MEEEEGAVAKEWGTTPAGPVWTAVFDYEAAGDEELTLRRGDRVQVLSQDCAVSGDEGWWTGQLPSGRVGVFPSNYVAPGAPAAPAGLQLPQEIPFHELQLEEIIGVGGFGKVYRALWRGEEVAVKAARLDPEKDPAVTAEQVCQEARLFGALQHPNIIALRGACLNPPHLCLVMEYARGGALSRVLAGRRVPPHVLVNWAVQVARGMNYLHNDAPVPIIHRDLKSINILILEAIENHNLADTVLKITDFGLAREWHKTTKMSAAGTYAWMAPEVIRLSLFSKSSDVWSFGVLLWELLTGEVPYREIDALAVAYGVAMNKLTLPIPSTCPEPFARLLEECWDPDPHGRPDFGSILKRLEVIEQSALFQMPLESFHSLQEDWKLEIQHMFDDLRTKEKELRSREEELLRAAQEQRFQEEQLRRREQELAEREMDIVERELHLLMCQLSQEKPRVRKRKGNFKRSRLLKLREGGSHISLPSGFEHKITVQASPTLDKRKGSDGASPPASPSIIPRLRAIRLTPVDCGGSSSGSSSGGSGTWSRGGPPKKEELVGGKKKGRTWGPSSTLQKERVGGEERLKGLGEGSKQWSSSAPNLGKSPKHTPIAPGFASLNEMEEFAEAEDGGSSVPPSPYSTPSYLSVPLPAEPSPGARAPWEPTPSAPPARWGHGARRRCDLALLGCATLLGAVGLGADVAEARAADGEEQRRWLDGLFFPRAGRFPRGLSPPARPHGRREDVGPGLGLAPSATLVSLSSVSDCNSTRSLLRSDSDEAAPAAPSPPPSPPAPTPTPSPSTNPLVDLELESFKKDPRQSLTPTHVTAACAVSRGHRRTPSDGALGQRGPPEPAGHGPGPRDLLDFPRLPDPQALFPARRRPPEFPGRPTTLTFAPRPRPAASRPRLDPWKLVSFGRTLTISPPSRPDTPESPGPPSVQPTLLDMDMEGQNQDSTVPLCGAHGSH
smiles,measurement,setting,value
Cc1cc([C@@H](C)Nc2ccccc2C(=O)O)c2nc(N3CCOCC3)cc(=O)n2c1 [AZD-6482],% of control,[1],96%
COc1cc(Nc2nc(C)cc(-c3cnn4nc(OC)ccc34)n2)cc(C(F)(F)F)c1,% of control,[2],100%
CN(C)C/C=C/C(=O)Nc1ccc(C(=O)N2CCCC(Nc3ncc(Cl)c(-c4c[nH]c5ccccc45)n3)C2)cc1 (stereo not drawn),% of control,[3],100%
COc1cc(N(C)c2ccnc3ccc(C(F)(F)F)cc23)cc(OC)c1OC,% binding,[4],88%
O[C@H]1CC[C@H](Nc2ncc3nc(Nc4c(F)cc(F)cc4F)n([C@H]4CCOC4)c3n2)CC1,% of control,[5],7.8%
CN(C(=O)c1cnn2cccnc12)c1cc2c(cc1N1CCOCC1)C(=O)N(C[C@@H](F)C(C)(C)O)C2,dTM,[6],-0.3 K
CNC(=O)Nc1ccc(-c2nc(N3CC4CCC(C3)O4)c3cnn(C4CCC5(CC4)OCCO5)c3n2)cc1,% of control,[7],87%
C=CC(=O)Nc1ccc(C(=O)Nc2[nH]nc3c2CN(C(=O)N[C@H](CN(C)C)c2ccccc2)C3(C)C)cc1,% of engagement,[8],7.2%
